Data from patent US20080293644A1, “GUAVA EXTRACT” (priority 2007, published 2008).
Values belong to the compound of their own block, whether it stands above or below them.

Tests used:
[1] = biological target: T1, DP-IV (Homo sapiens, UniProt P27487); experiment: DP-IV activity colorimetric assay (Gly-Pro-4-NA hydrolysis, 405 nm) in human plasma; assay type: biochemical; details: for %-Inhibition DP-IV / inhibition at 100000 µM: unspecific enzyme inhibitors and solvents at 100 mM
T1 construct: DP-IV also exists as a soluble circulating form in plasma; from tissue; host or cells: human plasma
T1 sequence (P27487 39-766 limits assumed): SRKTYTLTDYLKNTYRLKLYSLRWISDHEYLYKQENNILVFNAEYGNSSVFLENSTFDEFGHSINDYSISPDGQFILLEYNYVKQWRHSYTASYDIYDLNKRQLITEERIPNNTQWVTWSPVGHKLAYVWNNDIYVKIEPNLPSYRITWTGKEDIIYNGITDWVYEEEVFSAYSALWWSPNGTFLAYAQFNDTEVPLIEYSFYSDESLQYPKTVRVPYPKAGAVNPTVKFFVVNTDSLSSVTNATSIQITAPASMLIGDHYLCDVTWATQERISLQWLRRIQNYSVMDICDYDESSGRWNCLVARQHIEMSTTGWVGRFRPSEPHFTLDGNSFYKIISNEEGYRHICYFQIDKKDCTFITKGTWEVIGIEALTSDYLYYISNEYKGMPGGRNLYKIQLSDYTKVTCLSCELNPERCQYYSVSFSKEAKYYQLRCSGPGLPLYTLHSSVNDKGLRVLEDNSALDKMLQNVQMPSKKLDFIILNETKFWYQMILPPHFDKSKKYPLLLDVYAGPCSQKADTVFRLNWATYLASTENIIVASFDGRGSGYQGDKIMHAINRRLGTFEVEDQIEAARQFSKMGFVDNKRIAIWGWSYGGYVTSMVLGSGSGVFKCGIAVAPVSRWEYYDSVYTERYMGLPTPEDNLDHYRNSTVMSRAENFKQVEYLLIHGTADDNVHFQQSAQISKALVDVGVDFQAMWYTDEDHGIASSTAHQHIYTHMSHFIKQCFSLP
Protocol: DP-IV activity was measured by a colorimetric assay.
400 μL assay buffer (9.5 g HEPES/l distilled water, pH adjusted to 7.0, product number H4034, Sigma, St. Louis, Mo.), 150 μL human plasma and 100 μL inhibitor solution (or solvent) were transferred into a photometer cuvette, gently mixed and pre-incubated at 37° C. for 3 minutes. The assay was then started by addition of 70 μL substrate solution (8.6 mg Gly-Pro-4-NA in 10 ml assay buffer).
DP-IV activity is expressed as the linear change in optical density over 20 min (Δ Abs/min).
Full inhibition (100%) indicated no apparent increase in absorption.
100% activity in a test sample indicated the same increase in absorption compared in a sample with no inhibitor. Zero activity (0%) indicated no apparent increase in absorption.

[2] = Stability of individual flavonol-glycosides during incubation conditions; assay type: physicochemical; details: 2 g extract (Example 2)/100 ml incubation media
[3] = system: CaCO2 cells; experiment: Absorption (uptake) of quercetin-glycosides in CaCO2 cells; assay type: in vitro ADME; details: 60 minutes; for % uptake by CaCO2 cells (% of flavonol-glycosides present in incubation media): 2 g guava extract/100 ml incubation media, 37° C., mean of 5 incubations
Protocol: Incubation conditions: 37° C. for 60 minutes (5 replicate incubations)
Data evaluation: Ratio of peak areas of individual flavonol-glycosides obtained from HPLC analysis of incubation media (immediately after preparation and after 60 minutes of incubation) and the cell content.
Cells were grown in 75 cm^2 culture-flasks (T75) and subcultured after one week (every other day washed with PBS buffer, removed with trypsin and transferred to an new culture flask).
7 to 8 days until confluency was reached. The cells were washed with PBS buffer and incubated with the flavonol for 60 minutes.
After the corresponding incubation time, 900 μl of incubation medium used was taken from each well and mixed with 100 μl formic acid. The cells were washed with PBS buffer and removed using 1 ml of 10% formic acid. Cells were sonicated 3 times for 30 seconds, centrifuged for 10 minutes and the pellets were discarded. The supernatant was used as sample for HPLC.

inhibition at 100000 µM ([1]; human plasma): 52.8%
SMILES: CCO [Ethanol]

%-Inhibition DP-IV ([1]; human plasma): 15.3%
SMILES: OCCS [Mercaptoethanol]

%-Inhibition DP-IV ([1]; human plasma): 10.0%
SMILES: Cn1ccnc1S [Methimazol]

Stability 60 min. at 37° C., pH = 7 [2]: 98.2 % from time = 0 | % uptake by CaCO2 cells (% of flavonol-glycosides present in incubation media) [3]: 4.5%
SMILES: O=c1c(O[C@@H]2O[C@H](CO)[C@@H](O)[C@H](O)[C@H]2O)c(-c2ccc(O)c(O)c2)oc2cc(O)cc(O)c12 [compound 4]

IC50 ([1]; Concentration for 50% inhibition of DPIV, isolated flavonol-glycosides tested at 100-500 μg/ml, estimated): 400 µM | Stability 60 min. at 37° C., pH = 7 [2]: 98.0 % from time = 0 | % uptake by CaCO2 cells (% of flavonol-glycosides present in incubation media) [3]: 5.3%
SMILES: O=c1c(O[C@@H]2OC[C@H](O)[C@H](O)[C@H]2O)c(-c2ccc(O)c(O)c2)oc2cc(O)cc(O)c12 [compound 6]

IC50 ([1]; concentration yielding a DP-IV inhibition of around 50%, human plasma, 70-280 μg/ml tested): 322 to 483 µM | DP-IV inhibition (in words) ([1]; human plasma): clear, dose dependent inhibition | concentration yielding a DP-IV inhibition of around 50% ([1]; human plasma, read from dose/response curve): 100-150 μg/assay volume | inhibition of DP-IV ([1]; sample adjusted to contain 180 μg guaijaverin/ml test assay, human plasma (FIG. 6)): 50% | absorption ranking in CaCO2 cells (in words) ([3]; 2 g guava extract/100 ml): best absorption
SMILES: O=c1c(O[C@@H]2OC[C@H](O)[C@H](O)[C@H]2O)c(-c2ccc(O)c(O)c2)oc2cc(O)cc(O)c12 [guaijaverin, quercetin-3-O-alpha-L-arabinopyranoside]

Further lines, the compound ahead of its results:

SMILES: C[S+](C)[O-] [DMSO]
%-Inhibition DP-IV ([1]; human plasma): 75.3%

SMILES: O=C(O)CN(CCN(CC(=O)O)CC(=O)O)CC(=O)O [EDTA]
%-Inhibition DP-IV ([1]; human plasma): 24.0%

SMILES: Cl.NCCN [Ethylendiamine•HCl]
%-Inhibition DP-IV ([1]; human plasma): 19.0%

SMILES: CO [Methanol]
inhibition at 100000 µM ([1]; human plasma): 59.7%

SMILES: C[CH2][Hg][S]c1ccccc1C(=O)[O-].[Na+] [Thimerosal]
%-Inhibition DP-IV ([1]; human plasma): <1.0%

SMILES: [Zn+2] [Zinc^++]
%-Inhibition DP-IV ([1]; human plasma): 19.3%
